{
  "source": "patent EP0406685A1",
  "about": "“Substituted polysaccharides, method for their preparation as well as their use in prophylaxis and treatment of viral diseases” (HOECHST AKTIENGESELLSCHAFT, priority 1989, dated 1991)",
  "system": "Friend Leukämie Virus",
  "assay": "FLV model of the mouse (Friend leukaemia virus infection, relative spleen weight)",
  "assay_type": "in vivo",
  "details": "i.p.; for rel.Milzgewicht in % Körpergew.: start 2 days after infection, spleen 14 days after infection",
  "text": "Da für die HIV-Infektion des Menschen kein überzeugendes Infektionsmodell bei Labortieren existiert, muß bei der Prüfung von Chemotherapeutika auf Infektionen mit anderen Retroviren zurückgegriffen werden. Im vorliegenden Falle wurde die Infektion der Maus mit dem Friend Leukämie Virus gewählt.\nNormale Labormäuse (NMRI = Naval Medical Research Institute) wurden durch intravenöse Injektion mit Friend-Virus enthaltendem Mäuseserum infiziert. Bei den unbehandelten Kontrolltieren entwickelt sich als Symptom der Infektion innerhalb von 2 Wochen bzw. 3 Wochen eine deutliche Vergrößerung von Milz und Leber. Die Behandlung erfolgt über 10 Tage bei intraperitonealer Applikation und über 16 Tage bei oraler Applikation der Testsubstanzen. Bei intraperitonealer Gabe der Testsubstanzen beginnt die Behandlung 48 Stunden nach der Infektion, bei peroraler Gabe der Testsubstanz 4 Tage vor der Infektion. Am 14. Tag nach Infektion werden die Tiere durch Luxation der Halswirbel getötet und geöffnet. Die Milz wird entnommen und gewogen. Als Meßparameter der therapeutischen Wirksamkeit wird das Milzgewicht der behandelten Tiere mit den der unbehandelten Infektionskontrolle in Relation gesetzt.\nFür die orale Applikation werden die Prüfsubstanzen in Trinkwasser gelöst. Alle 24 Stunden werden die Trinkwasserbehälter mit jeweils 100 ml Inhalt gewechselt. Aus dem täglich ermittelten Verbrauch an Trinkwasser pro Versuchskollektiv wird die durchschnittliche Dosismenge errechnet, die einer Maus pro 24 Stunden appliziert wurde.\nWährend bei uninfizierten, ausgewachsenen Labormäusen (20 - 24 g Körpergewicht) die Milz weniger als 1 % des Körpergewichtes wiegt, erreicht bei infizierten Tieren die Milz am Ende des Versuchs etwa bis zu 10 % des Körpergewichtes.\nAls Vergleichspräparate dienen Suramin (= 3,3′-Ureylen-bis-(8-(3-benzamido-4-methylbenzamido)-naphthalin-1,3,5-trisulfonsäure|) bei intraperitonealer Gabe bzw. Pentosanpolysulfat bei intraperitonealer und oraler Gabe.",
  "data": [
    {"compound": "Cc1ccc(C(=O)Nc2ccc(S(=O)(=O)O)c3cc(S(=O)(=O)O)cc(S(=O)(=O)O)c23)cc1NC(=O)c1cccc(NC(=O)Nc2cccc(C(=O)Nc3cc(C(=O)Nc4ccc(S(=O)(=O)O)c5cc(S(=O)(=O)O)cc(S(=O)(=O)O)c45)ccc3C)c2)c1", "note": "[Suramin, 3,3′-Ureylen-bis-(8-(3-benzamido-4-methylbenzamido)-naphthalin-1,3,5-trisulfonsäure|)]", "values": [
      {"measurement": "rel.Milzgewicht in % Körpergew.", "setting": "10 x 0,1 mg/Maus, second series (Kontrolle 7,25)", "value": "5,68 % Körpergew."},
      {"measurement": "Anzahl überlebender Mäuse n", "setting": "10 x 0,1 mg/Maus, second series (Kontrolle 10)", "value": 10},
      {"measurement": "rel.Milzgewicht in % Körpergew.", "setting": "10 x 1,0 mg/Maus, first series (Kontrolle 6,41)", "value": "4,96 % Körpergew."},
      {"measurement": "Anzahl überlebender Mäuse n", "setting": "10 x 1,0 mg/Maus, first series (Kontrolle 10)", "value": 10}
    ]}
  ]
}
